Experimental data: ChEMBL document CHEMBL1201862, “PubChem BioAssay data set” (2004)
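The compound was tested at five concentrations on cells cultured in 96-well plates, with a 48-hour exposure period. Here, GI50 denotes the concentration required for 50% inhibition of growth.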 The source made the active and inactive calls. No stated cut-off is given here; in the data, active = GI50 up to about 1.1 µM and inactive = higher.

What was measured:
Experiment in all cases: inhibition of tumour cell growth, NCI panel, 48 h
786-0 = system: 786-0
A498 = system: A498
A549 = system: A549
ACHN = system: ACHN
BT-549 = system: BT-549
CAKI-1 = system: CAKI-1
CCRF-CEM = system: CCRF-CEM
COLO 205 = system: COLO 205
DU-145 = system: DU-145
EKVX = system: EKVX
HCC 2998 = system: HCC 2998
HCT-116 = system: HCT-116
HCT-15 = system: HCT-15
HL-60 = system: HL-60
HOP-62 = system: HOP-62
HOP-92 = system: HOP-92
HT-29 = system: HT-29
Hs-578T = system: Hs-578T
IGROV-1 = system: IGROV-1
K562 = system: K562
KM12 = system: KM12
LOX IMVI = system: LOX IMVI
M14 = system: M14
MCF7 = system: MCF7
MDA-MB-231 = system: MDA-MB-231
MDA-MB-435 = system: MDA-MB-435
MDA-N = system: MDA-N
MOLT-4 = system: MOLT-4
Malme-3M = system: Malme-3M
NCI-H226 = system: NCI-H226
NCI-H23 = system: NCI-H23
NCI-H460 = system: NCI-H460
NCI-H522 = system: NCI-H522
NCI/ADR-RES = system: NCI/ADR-RES
OVCAR-3 = system: OVCAR-3
OVCAR-4 = system: OVCAR-4
OVCAR-5 = system: OVCAR-5
OVCAR-8 = system: OVCAR-8
PC-3 = system: PC-3
RPMI-8226 = system: RPMI-8226
RXF 393 = system: RXF 393
SF-268 = system: SF-268
SF-295 = system: SF-295
SF-539 = system: SF-539
SK-MEL-28 = system: SK-MEL-28
SK-MEL-2 = system: SK-MEL-2
SK-MEL-5 = system: SK-MEL-5
SK-OV-3 = system: SK-OV-3
SN12C = system: SN12C
SNB-19 = system: SNB-19
SNB-75 = system: SNB-75
SR = system: SR
SW-620 = system: SW-620
T47D = system: T47D
TK-10 = system: TK-10
U-251 = system: U-251
UACC-257 = system: UACC-257
UACC-62 = system: UACC-62
UO-31 = system: UO-31

c1ccc(-c2nnc(SCc3c[nH]c4ccccc34)n2-c2ccccc2)cc1
GI50 (786-0): 31.8 µM (inactive) | GI50 (A498): 19.3 µM (inactive) | GI50 (A549): 34.4 µM (inactive) | GI50 (ACHN): 26.6 µM (inactive) | GI50 (BT-549): 17.3 µM (inactive) | GI50 (CAKI-1): 33.1 µM (inactive) | GI50 (CCRF-CEM): 25.9 µM (inactive) | GI50 (COLO 205): > 100 µM (inactive) | GI50 (DU-145): 40.3 µM (inactive) | GI50 (EKVX): 21.8 µM (inactive) | GI50 (HCC 2998): 27.4 µM (inactive) | GI50 (HCT-116): 35.6 µM (inactive) | GI50 (HCT-15): 45 µM | GI50 (HL-60): > 100 µM (inactive) | GI50 (HOP-62): 19 µM (inactive) | GI50 (HOP-92): 3.55 µM (inactive) | GI50 (HT-29): 8 µM (inactive) | GI50 (Hs-578T): 17.4 µM (inactive) | GI50 (IGROV-1): 27.2 µM (inactive) | GI50 (K562): 47.5 µM (inactive) | GI50 (KM12): 65.3 µM (inactive) | GI50 (LOX IMVI): 34.9 µM (inactive) | GI50 (M14): 78.9 µM (inactive) | GI50 (MCF7): 42.3 µM (inactive) | GI50 (MDA-MB-231): 29.4 µM (inactive) | GI50 (MDA-MB-435): 34.6 µM (inactive) | GI50 (MDA-N): 78 µM (inactive) | GI50 (MOLT-4): 8.11 µM (inactive) | GI50 (Malme-3M): > 100 µM (inactive) | GI50 (NCI-H226): 22.7 µM (inactive) | GI50 (NCI-H23): 41.4 µM (inactive) | GI50 (NCI-H460): 12.1 µM (inactive) | GI50 (NCI-H522): 25.9 µM (inactive) | GI50 (NCI/ADR-RES): 22.6 µM (inactive) | GI50 (OVCAR-3): 40.8 µM (inactive) | GI50 (OVCAR-4): 29.5 µM (inactive) | GI50 (OVCAR-5): > 100 µM (inactive) | GI50 (OVCAR-8): 30.7 µM (inactive) | GI50 (PC-3): 21.4 µM (inactive) | GI50 (RPMI-8226): > 100 µM (inactive) | GI50 (RXF 393): 16.6 µM (inactive) | GI50 (SF-268): 38.2 µM (inactive) | GI50 (SF-295): 19.6 µM (inactive) | GI50 (SF-539): 18.9 µM (inactive) | GI50 (SK-MEL-28): 75.3 µM (inactive) | GI50 (SK-MEL-2): 29.2 µM (inactive) | GI50 (SK-MEL-5): 15 µM (inactive) | GI50 (SK-OV-3): 32.4 µM (inactive) | GI50 (SN12C): 68.4 µM (inactive) | GI50 (SNB-19): 42.1 µM (inactive) | GI50 (SNB-75): 18.7 µM (inactive) | GI50 (SR): 11.7 µM (inactive) | GI50 (SW-620): 85.1 µM (inactive) | GI50 (T47D): 20 µM (inactive) | GI50 (TK-10): 22.2 µM (inactive) | GI50 (U-251): 24.2 µM (inactive) | GI50 (UACC-257): 23.8 µM (inactive) | GI50 (UACC-62): 21.5 µM (inactive) | GI50 (UO-31): > 100 µM (inactive)

OC(CC1CCCCN1)c1ccc2c(c1)oc1ccccc12 (stereo not drawn)
GI50 (786-0): > 100 µM (inactive) | GI50 (A498): 23.4 µM (inactive) | GI50 (A549): > 100 µM (inactive) | GI50 (ACHN): > 100 µM (inactive) | GI50 (BT-549): > 100 µM (inactive) | GI50 (CAKI-1): 52.8 µM (inactive) | GI50 (CCRF-CEM): 33.3 µM (inactive) | GI50 (COLO 205): 19.1 µM (inactive) | GI50 (DU-145): > 100 µM (inactive) | GI50 (EKVX): 49 µM (inactive) | GI50 (HCC 2998): 30.4 µM (inactive) | GI50 (HCT-116): 85.3 µM (inactive) | GI50 (HCT-15): 52.2 µM | GI50 (HL-60): > 100 µM (inactive) | GI50 (HOP-62): 91.2 µM (inactive) | GI50 (HOP-92): 48.3 µM (inactive) | GI50 (HT-29): 28.2 µM (inactive) | GI50 (Hs-578T): 87.7 µM (inactive) | GI50 (IGROV-1): 55.6 µM (inactive) | GI50 (K562): 39.5 µM (inactive) | GI50 (KM12): > 100 µM (inactive) | GI50 (LOX IMVI): 56 µM (inactive) | GI50 (M14): 18.8 µM (inactive) | GI50 (MCF7): 83 µM (inactive) | GI50 (MDA-MB-231): > 100 µM (inactive) | GI50 (MDA-MB-435): 42.7 µM (inactive) | GI50 (MDA-N): 40.8 µM (inactive) | GI50 (MOLT-4): 28.2 µM (inactive) | GI50 (Malme-3M): 38.9 µM (inactive) | GI50 (NCI-H226): 74.5 µM (inactive) | GI50 (NCI-H23): > 100 µM (inactive) | GI50 (NCI-H460): 43.6 µM (inactive) | GI50 (NCI-H522): 79.8 µM (inactive) | GI50 (NCI/ADR-RES): > 100 µM (inactive) | GI50 (OVCAR-3): > 100 µM (inactive) | GI50 (OVCAR-4): 94.2 µM (inactive) | GI50 (OVCAR-5): 50.1 µM (inactive) | GI50 (OVCAR-8): 84.1 µM (inactive) | GI50 (PC-3): 71 µM (inactive) | GI50 (RPMI-8226): 46.1 µM (inactive) | GI50 (RXF 393): 57.3 µM (inactive) | GI50 (SF-268): > 100 µM (inactive) | GI50 (SF-295): 99.1 µM (inactive) | GI50 (SF-539): 46.1 µM (inactive) | GI50 (SK-MEL-28): 34 µM (inactive) | GI50 (SK-MEL-2): 34 µM (inactive) | GI50 (SK-MEL-5): 17.8 µM (inactive) | GI50 (SK-OV-3): > 100 µM (inactive) | GI50 (SN12C): > 100 µM (inactive) | GI50 (SNB-19): > 100 µM (inactive) | GI50 (SNB-75): 39.6 µM (inactive) | GI50 (SR): 67.3 µM (inactive) | GI50 (SW-620): > 100 µM (inactive) | GI50 (T47D): > 100 µM (inactive) | GI50 (TK-10): 72.1 µM (inactive) | GI50 (U-251): > 100 µM (inactive) | GI50 (UACC-257): 31 µM (inactive) | GI50 (UACC-62): 22.6 µM (inactive) | GI50 (UO-31): 37.2 µM (inactive)
